# Reference: US10822337B2, “TGF-β inhibitorC” (Rigel Pharmaceuticals, Inc., priority 2015, dated 2020)
# How the values were obtained:
# [1] = tested on: GDF8 signaling (GDF pSMAD, MPC11); test: AlphaScreen SureFire SMAD3 (p-Ser423/425) assay, inhibition of GDF8 signaling; type: cell-based; details: Mus musculus, MPC-11, p-SMAD-3 (Ser423/425) in cell lysate after GDF8 stimulation
# Excerpt: (§1) Example 2: AlphaScreen® SureFire® SMAD3 (p-Ser423/425) Assay
# (§2) The p-SMAD-3 (Ser423/425) SureFire® assay has been designed to measure the phosphorylation of endogenous cellular p-SMAD-3 (Ser423/425) in cell lysates and is a system for the screening of both modulators of receptor activation (e.g. agonists and antagonists) as well as agents acting intracellularly, such as small molecule inhibitors of upstream events. The assay will measure p-SMAD-3 (Ser423/425) activation by either cloned or endogenous receptors, and can be applied to primary cells.
# (§3) 1× Lysis buffer: 1 ml of 5× Lysis buffer was diluted with 4 ml of sterile water. After dilution, excess 1× Lysis buffer can be frozen and thawed up to 5 times without loss in activity.
# (§4) P-SMAD-3 (Ser423/425) SureFire® Assay Protocols
# (§5) Step A: Preparation of Buffers
# (§6) Activation buffer: The buffer was warmed slowly to 37° C. and gently mixed to re-suspend. Activation buffer can be stored at room temperature with no loss in activity.
# (§7) Reaction buffer: The buffer was kept at 4° C. while in use.
# (§8) AlphaScreen® Protein A IgG Kit: The kit was stored at 4° C. in the dark.
# (§9) Reaction buffer+Activation buffer+AlphaScreen® Acceptor beads: Reaction buffer (40 parts), Activation Buffer (10 parts) and Acceptor beads (1 part) were mixed and the mixture was stored at room temperature and used the same day. Mixture was added to 384-well plates; excess mixturewas discarded.
# (§10) Dilution buffer+AlphaScreen® Donor beads: Dilution buffer (20 parts) and Donor beads (1 part) were mixed and the mixture was stored at room temperature and used the same day. Excess mixture was discarded.
# (§11) Assay control samples: After reconstitution in 250 μl of water, lysates were at −20° C. in single use aliquots.
# (§12) Step B: Preparation of Samples and Cells
# (§13) 96-well Assay Protocol for 293FT and RMS13 adherent cells can be carried out manually or in high throughput with liquid handling robots.
# (§14) The cells (80 μL of cells for 96 well plates) were plated in collagen coated tissue culture plates in RPMI or FreeStyle medium (Invitrogen) and incubated overnight. For manual analysis, 6 plates for GDF8, 6 plates for TGFβ, and optionally 6 plates for Alk5ca(ALKS constitutively active) were used.
# (§15) The compound dilution plates were prepared as follows: 12 μL of DMSO was transferred into first column of 96-well plate, and 16 μL of DMSO was transferred into columns 2-12 of the 96-well plate. 12 μL of compound solution was transferred into first column of the DMSO-containing 96-well plate. Three-fold dilution was performed up to column 10 of the DMSO-containing 96-well plate.
# (§16) Step C: Treatment and Analysis
# (§17) The plate containing cells were treated with compounds for about 10 minutes, and then ligand was added. GDF8 or TGFb was added to plates to stimulate. 293FL cells were stimulatedfor 90 minutes at 37° C.; and RMS13 cells were stimulated for 60 minutes at 37° C. The medium was then removed from the cells, and 1× Lysis Buffer (about 25 μL) was added and the plate was gently agitated on plate shaker for 5-10 minutes.
# (§18) The lysate (5 μL) was then placed into 384-well shallow plates avoiding the generation of bubbles. To this, the Reaction Buffer+Activation Buffer+AlphaScreen® Acceptor beadsmixture (5 μL) was added. The plate was sealed with adhesive cover and shielded from light (e.g., with metal foil), and agitated gently on plate shaker for 2 hours at room temperature.
# (§19) Dilution buffer+AlphaScreen® Donor beads (2 μL) was then added, and the plate was intubated on the plate shaker for an additional 1½ hours. After completion, the plate was read on Synergy-4 or Enspire plate reader, using AlphaScreen® pSMAD3® settings.
# (§20) Representative results for inhibition of GDF8 (data=GDF pSMAD (MPC11) (μM)) and TGF-β (data=TGF-β pSMAD (MPC-11) (μM)) signaling are shown in Table 1: […]
# [2] = tested on: TGF-β signaling (TGF-β pSMAD, MPC-11); test: AlphaScreen SureFire SMAD3 (p-Ser423/425) assay, inhibition of TGF-β signaling; type: cell-based; details: Mus musculus, p-SMAD-3 (Ser423/425) in cell lysate after TGF-β stimulation
# Excerpt: as §1, §2, §3, §4, §5, §6, §7, §8, §9, §10, §11, §12, §13, §14, §15, §16, §17, §18, §19, §20
IC50 [1] [nM],IC50 [2] [nM],SMILES
555,2220,"COc1c(F)ccc(-c2nn3c(c2-c2ccc4ncsc4c2)CCC3)c1F [Compound 162, 6-(2-(2,4-Difluoro-3-methoxyphenyl)-5,6-dihydro-4H-pyrrolo[1,2-b]pyrazol-3-yl)benzo[d]thiazole]"
862,5260,"Fc1ccc(F)c(-c2nn3c(c2-c2ccc4ncccc4c2)CCC3)c1 [Compound 196, 6-(2-(2,5-Difluorophenyl)-5,6-dihydro-4H-pyrrolo[1,2-b]pyrazol-3-yl)quinoline]"
130,232,"Fc1cc(F)c(-c2nn3c(c2-c2ccc4ncsc4c2)CCC3)cc1Cl [Compound 189, 6-(2-(5-Chloro-2,4-difluorophenyl)-5,6-dihydro-4H-pyrrolo[1,2-b]pyrazol-3-yl)benzo[d]thiazole]"
36.7,153,"Fc1ccc(Cl)cc1-c1nn2c(c1-c1ccc3cn[nH]c3c1)CCC2 [Compound 174, 6-(2-(5-Chloro-2-fluorophenyl)-5,6-dihydro-4H-pyrrolo[1,2-b]pyrazol-3-yl)-1H-indazole]"
35.6,83.5,"Fc1ccc(Cl)cc1-c1nn2c(c1-c1ccc3nccnc3c1)CCC2 [Compound 177, 6-(2-(5-Chloro-2-fluorophenyl)-5,6-dihydro-4H-pyrrolo[1,2-b]pyrazol-3-yl)quinoxaline]"
504,842,"Fc1c(Cl)cccc1-c1nn2c(c1-c1ccc3ncsc3c1)CCC2 [Compound 140, 6-(2-(3-Chloro-2-fluorophenyl)-5,6-dihydro-4H-pyrrolo[1,2-b]pyrazol-3-yl)benzo[d]thiazole]"
112,225,"Cc1cc(-c2nn3c(c2-c2ccc4ncsc4c2)CCC3)c(F)cc1F [Compound 182, 6-(2-(2,4-Difluoro-5-methylphenyl)-5,6-dihydro-4H-pyrrolo[1,2-b]pyrazol-3-yl)benzo[d]thiazole]"
194,572,"Fc1ccc(-c2nn3c(c2-c2ccc4ncsc4c2)CCC3)cc1Cl [Compound 145, 6-(2-(3-Chloro-4-fluorophenyl)-5,6-dihydro-4H-pyrrolo[1,2-b]pyrazol-3-yl)benzo[d]thiazole]"
178,464,"Cc1c(F)ccc(-c2nn3c(c2-c2ccc4nccn4c2)CCC3)c1F [Compound 169, 6-(2-(2,4-Difluoro-3-methylphenyl)-5,6-dihydro-4H-pyrrolo[1,2-b]pyrazol-3-yl)imidazo[1,2-a]pyridine]"
204,687,"Fc1ccc(-c2nn3c(c2-c2ccc4nccnc4c2)CCC3)cc1Cl [Compound 147, 6-(2-(3-Chloro-4-fluorophenyl)-5,6-dihydro-4H-pyrrolo[1,2-b]pyrazol-3-yl)quinoxaline]"

# Further lines, the compound ahead of its results:
SMILES,IC50 [1] [nM],IC50 [2] [nM]
"Cc1cc(-c2nn3c(c2-c2ccc4nccnc4c2)CCC3)ccc1F [Compound 55, 6-(2-(4-Fluoro-3-methylphenyl)-5,6-dihydro-4H-pyrrolo[1,2-b]pyrazol-3-yl)quinoxaline]",173,525
"COc1cccc(-c2nn3c(c2-c2ccc4nccnc4c2)OCC3)c1 [Compound 76, 6-(3-Methoxyphenyl)-7-(quinoxalin-6-yl)-2,3-dihydropyrazolo[5,1-b]oxazole]",180,649
"Fc1ccc(-c2nn3c(c2-c2ccc4nccnc4c2)CCC3)c(F)c1F [Compound 132, 6-(2-(2,3,4-Trifluorophenyl)-5,6-dihydro-4H-pyrrolo[1,2-b]pyrazol-3-yl)quinoxaline]",910,2340
"FC(F)(F)Oc1cccc(-c2nn3c(c2-c2ccc4sncc4c2)CCC3)c1 [Compound 128, 5-(2-(3-Trifluoromethoxyphenyl)-5,6-dihydro-4H-pyrrolo[1,2-b]pyrazol-3-yl)benzo[d]isothiazole]",439,677
"Clc1cccc(-c2nn3c(c2-c2ccc4ncsc4c2)CCC3)c1 [Compound 26, 6-(2-(3-Chlorophenyl)-5,6-dihydro-4H-pyrrolo[1,2-b]pyrazol-3-yl)benzo[d]thiazole]",67,133
"Fc1ccc(-c2nn3c(c2-c2ccc4cn[nH]c4c2)CCC3)cc1F [Compound 84, 6-(2-(3,4-Difluorophenyl)-5,6-dihydro-4H-pyrrolo[1,2-b]pyrazol-3-yl)-1H-indazole]",326,1610
"Fc1cc(F)c(-c2nn3c(c2-c2ccc4ncsc4c2)CCC3)cc1F [Compound 116, 6-(2-(2,4,5-Trifluorophenyl)-5,6-dihydro-4H-pyrrolo[1,2-b]pyrazol-3-yl)benzo[d]thiazole]",27.6,186
"Fc1ccc(F)c(-c2nn3c(c2-c2ccc4[nH]ncc4c2)CCC3)c1 [Compound 1, 5-(2-(2,5-difluorophenyl)-5,6-dihydro-4H-pyrrolo[1,2-b]pyrazol-3-yl)-1H-indazole]",592,2030
"Cc1cccc(-c2nn3c(c2-c2ccc4nccn4c2)OCCC3)c1 [Compound 42, 3-(Imidazo[1,2-a]pyridin-6-yl)-2-(m-tolyl)-6,7-dihydro-5H-pyrazolo[5,1-b][1,3]oxazine]",112,331
"Fc1ccc(-c2nn3c(c2-c2ccc4ncccc4c2)CCC3)cc1F [Compound 88, 6-(2-(3,4-Difluorophenyl)-5,6-dihydro-4H-pyrrolo[1,2-b]pyrazol-3-yl)quinoline]",1060,9580
"FC(F)(F)c1cccc(-c2nn3c(c2-c2ccc4ncccc4c2)CCC3)c1 [Compound 50, 6-(2-(3-Trifluoromethylphenyl)-5,6-dihydro-4H-pyrrolo[1,2-b]pyrazol-3-yl)quinoline]",473,4190
"FC(F)(F)Oc1cccc(-c2nn3c(c2-c2ccc4nccnc4c2)CCC3)c1 [Compound 126, 6-(2-(3-Trifluoromethoxyphenyl)-5,6-dihydro-4H-pyrrolo[1,2-b]pyrazol-3-yl)quinoxaline]",156,222
"Cc1cccc(-c2nn3c(c2-c2ccc4ncccc4c2)CCC3)c1 [Compound 46, 6-(2-(m-Tolyl)-5,6-dihydro-4H-pyrrolo[1,2-b]pyrazol-3-yl)quinoline]",234,1510
"Cc1cc(-c2nn3c(c2-c2ccc4c(cnn4C)c2)CCC3)ccc1F [Compound 15, 5-(2-(4-Fluoro-3-methylphenyl)-5,6-dihydro-4H-pyrrolo[1,2-b]pyrazol-3-yl)-1-methyl-1H-indazole]",987,2740
"FC(F)(F)c1cccc(-c2nn3c(c2-c2ccc4nccnc4c2)CCC3)c1 [Compound 58, 6-(2-(3-Trifluoromethylphenyl)-5,6-dihydro-4H-pyrrolo[1,2-b]pyrazol-3-yl)quinoxaline]",309,863
"COc1cccc(-c2nn3c(c2-c2ccc4nccnc4c2)CCC3)c1 [Compound 56, 6-(2-(3-Methoxyphenyl)-5,6-dihydro-4H-pyrrolo[1,2-b]pyrazol-3-yl)quinoxaline]",372,866
"Cc1cccc(-c2nn3c(c2-c2ccc4ncsc4c2)CCC3)c1 [Compound 12, 6-(2-(m-Tolyl)-5,6-dihydro-4H-pyrrolo[1,2-b]pyrazol-3-yl)benzo[d]thiazole]",46.8,117
